The assay deals with CD8F1 mice, subcutaneous mammary adenocarcinoma, T/C%. The experiment in a line: NCI In Vivo Anticancer Drug Screen. Data for tumor model Mammary Adenocarcinoma CD8F1 (subcutaneous) in CD8F1. The conditions noted are these: higher = larger tumour. The method in brief:
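Ratio of treated to vehicle-control outcome, based on either survival or tumor size, in mice bearing transplantable tumors given the test compound.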

The mark [1] stands for this setting: endpoint: median tumor weight change, dose: 62.5 mg/kg/injection, schedule: Q01DX001 (ip), vehicle: saline with Tween-80.
The mark [2] stands for this setting: endpoint: median tumor weight change, dose: 125.0 mg/kg/injection, schedule: Q01DX001 (ip), vehicle: saline with Tween-80.
[3] abbreviates: endpoint: median tumor weight change, dose: 125.0 mg/kg/injection, schedule: Q01DX001 (ip), vehicle: Klucel (hydroxypropylcellulose) (HPC).
Where [4] appears, read: endpoint: median tumor weight change, dose: 250.0 mg/kg/injection, schedule: Q01DX001 (ip), vehicle: Klucel (hydroxypropylcellulose) (HPC).
Setting [5] is: endpoint: median tumor weight change, dose: 500.0 mg/kg/injection, schedule: Q01DX001 (ip), vehicle: Klucel (hydroxypropylcellulose) (HPC).

Our source for the T/C values is PubChem BioAssay AID220 (DTP/NCI, 2004).

Where “and” joins values, the source holds several entries; their conditions need not be identical. Identical values can stand only once. Records with an inconclusive call do not appear.

Regarding `C/C(=N\NC(N)=O)c1cccc(/C(C)=N/NC(N)=O)n1`, the T/C by setting is: under setting [1], 64 % of control; under setting [2], 53 % of control; (endpoint: median tumor weight change, dose: 250.0 mg/kg/injection, schedule: Q01DX001 (ip), vehicle: saline with Tween-80) 48 % of control.

In the case of `CC(=O)OC1COC(NC(=O)N(CCCl)N=O)C(OC(C)=O)C1OC(C)=O` (centres undefined), the T/C by setting is: (endpoint: median tumor weight (est.), dose: 1.5 mg/kg/injection, schedule: Q07DX004 (ip), vehicle: saline with Tween-80) 32 % of control; (endpoint: median tumor weight (est.), dose: 3.0 mg/kg/injection, schedule: Q07DX004 (ip), vehicle: saline with Tween-80) 103 % of control; (endpoint: median tumor weight (est.), dose: 6.0 mg/kg/injection, schedule: Q07DX004 (ip), vehicle: saline with Tween-80) 35 % of control; (endpoint: median tumor weight (est.), dose: 6.0 mg/kg/injection, schedule: Q07DX005 (ip), vehicle: saline with Tween-80) 103 % of control; (endpoint: median tumor weight (est.), dose: 12.0 mg/kg/injection, schedule: Q07DX005 (ip), vehicle: saline with Tween-80) 68 % of control; (endpoint: median tumor weight (est.), dose: 24.0 mg/kg/injection, schedule: Q07DX005 (ip), vehicle: saline with Tween-80) 46 % of control.

With `OCC1OC(n2cnc3cncnc32)C(O)C1O` (centres undefined), the T/C was 114 % of control (endpoint: median tumor weight (est.), dose: 3.12 mg/kg/injection, schedule: Q07DX005 (ip), vehicle: saline); 59 % of control (endpoint: median tumor weight (est.), dose: 6.25 mg/kg/injection, schedule: Q07DX005 (ip), vehicle: saline); 65 % of control (endpoint: median tumor weight (est.), dose: 12.5 mg/kg/injection, schedule: Q07DX005 (ip), vehicle: saline).

On to `Cc1cc(=O)n2c3c(c4c(cc13)c(CN(C)C)cc(=O)n4C)OC2`, for which the T/C (endpoint: median tumor weight change, dose: 62.0 mg/kg/injection, schedule: Q01DX001 (ip), vehicle: saline with Tween-80) is 190 % of control.

`COc1c(CNC(=O)CCl)cc2[nH]c(C)cc2c1CNC(=O)CCl`: the T/C is 92 % of control (endpoint: median tumor weight (est.), dose: 6.25 mg/kg/injection, schedule: Q07DX005 (ip), vehicle: Klucel (hydroxypropylcellulose) (HPC)); 67 % of control (endpoint: median tumor weight (est.), dose: 12.5 mg/kg/injection, schedule: Q07DX005 (ip), vehicle: Klucel (hydroxypropylcellulose) (HPC)); 97 % of control (endpoint: median tumor weight (est.), dose: 50.0 mg/kg/injection, schedule: Q07DX005 (ip), vehicle: Klucel (hydroxypropylcellulose) (HPC)); 55 % of control (endpoint: median tumor weight (est.), dose: 100.0 mg/kg/injection, schedule: Q07DX005 (ip), vehicle: Klucel (hydroxypropylcellulose) (HPC)); 57 % of control (endpoint: median tumor weight (est.), dose: 200.0 mg/kg/injection, schedule: Q07DX005 (ip), vehicle: Klucel (hydroxypropylcellulose) (HPC)); 106 % of control under setting [3]. Moreover, under setting [4], the T/C was 108 % of control.

Take `CC[C@@]1(O)C[C@H](OC2CC(N(C)C)C(OC3CC(O)C(OC4CC(O)C(O)C(C)O4)C(C)O3)C(C)O2)c2c(cc3c(c2O)C(=O)c2c(O)ccc(O)c2C3=O)[C@H]1C(=O)OC` (some centres undefined): the T/C runs as follows: (endpoint: median tumor weight (est.), dose: 0.75 mg/kg/injection, schedule: Q07DX005 (ip), vehicle: other) 122 % of control; (endpoint: median tumor weight (est.), dose: 3.0 mg/kg/injection, schedule: Q07DX005 (ip), vehicle: other) 84 % of control.

For `O=C(CCCCCCC(=O)ON1C(=O)CCC1=O)ON1C(=O)CCC1=O`, the T/C runs as follows: (endpoint: median tumor weight change, dose: 187.5 mg/kg/injection, schedule: Q01DX001 (ip), vehicle: saline with Tween-80) 100 % of control; (endpoint: median tumor weight change, dose: 375.0 mg/kg/injection, schedule: Q01DX001 (ip), vehicle: saline with Tween-80) 102 % of control; (endpoint: median tumor weight change, dose: 750.0 mg/kg/injection, schedule: Q01DX001 (ip), vehicle: saline with Tween-80) 51 % of control.

With `Nc1ncnc2c1ccn2C1OC(CO)C(O)C1O` (centres undefined), the T/C is 162 % of control (endpoint: mean tumor weight, dose: 0.25 mg/kg/injection, schedule: Q01DX009 (ip), vehicle: saline); 98 % of control (endpoint: mean tumor weight, dose: 0.5 mg/kg/injection, schedule: Q01DX009 (ip), vehicle: saline); 114 % of control (endpoint: mean tumor weight, dose: 1.0 mg/kg/injection, schedule: Q01DX009 (ip), vehicle: saline); 117 % of control (endpoint: mean tumor weight, dose: 1.0 mg/kg/injection, schedule: Q07DX005 (ip), vehicle: saline); 361 % of control (endpoint: mean tumor weight, dose: 4.0 mg/kg/injection, schedule: Q07DX005 (ip), vehicle: saline); 195 % of control (endpoint: median tumor weight (est.), dose: 0.5 mg/kg/injection, schedule: Q07DX005 (ip), vehicle: Klucel (hydroxypropylcellulose) (HPC)). Further, the T/C (endpoint: median tumor weight (est.), dose: 8.0 mg/kg/injection, schedule: Q07DX005 (ip), vehicle: Klucel (hydroxypropylcellulose) (HPC)) is 114 % of control.

For the compound `COc1cc2c[n+](C)c3c(c2cc1OC)Cc1cc2c(cc1-3)OCO2`, the T/C is 92 % of control (endpoint: median tumor weight change, dose: 62.5 mg/kg/injection, schedule: Q01DX001 (ip), vehicle: suspension in saline) and 105 % of control (endpoint: median tumor weight change, dose: 125.0 mg/kg/injection, schedule: Q01DX001 (ip), vehicle: suspension in saline).

For the compound `CC[C@@H](C)[C@@H]1NC(=O)C(NC(=O)C(CC(C)C)N(C)C(=O)C2CCCN2C(=O)C(C)O)C(C)OC(=O)C(Cc2ccc(OC)cc2)N(C)C(=O)C2CCCN2C(=O)C(CC(C)C)NC(=O)C(C)C(=O)C(C(C)C)OC(=O)C[C@H]1O` (some centres undefined), the T/C (endpoint: median tumor weight change, dose: 20.0 micrograms/kg/injection, schedule: Q01DX001 (ip), vehicle: distilled water + alcohol) was 73 % of control; the T/C (endpoint: median tumor weight change, dose: 40.0 micrograms/kg/injection, schedule: Q01DX001 (ip), vehicle: distilled water + alcohol) was 55 % of control; the T/C (endpoint: median tumor weight change, dose: 300.0 micrograms/kg/injection, schedule: Q01DX001 (ip), vehicle: distilled water + alcohol) is 63 % of control; the T/C (endpoint: median tumor weight change, dose: 320.0 micrograms/kg/injection, schedule: Q01DX001 (ip), vehicle: distilled water + alcohol) is 88 % of control; the T/C (endpoint: median tumor weight change, dose: 600.0 micrograms/kg/injection, schedule: Q01DX001 (ip), vehicle: distilled water + alcohol) is 71 % of control; the T/C (endpoint: median tumor weight change, dose: 1200.0 micrograms/kg/injection, schedule: Q01DX001 (ip), vehicle: distilled water + alcohol) is 37 % of control.

Turning to `Clc1ccc(C(c2ccc(Cl)cc2)C(Cl)(Cl)Cl)cc1`, the T/C is, setting by setting: (endpoint: median tumor weight change, dose: 31.25 mg/kg/injection, schedule: Q01DX001 (ip), vehicle: Klucel (hydroxypropylcellulose) (HPC)) 106 % of control; (endpoint: median tumor weight change, dose: 62.5 mg/kg/injection, schedule: Q01DX001 (ip), vehicle: Klucel (hydroxypropylcellulose) (HPC)) 84 % of control; under setting [3], 123 % of control; under setting [4], 80 % of control; under setting [5], 59 % of control.

Consider `CN(C)C(=O)SC1=C(c2c(Cl)cccc2Cl)C(=O)c2ccccc21`, for which the T/C is, setting by setting: under setting [3], 101 % of control and 115 % of control; under setting [4], 98 % of control and 109 % of control; under setting [5], 113 % of control; (endpoint: median tumor weight change, dose: 1000.0 mg/kg/injection, schedule: Q01DX001 (ip), vehicle: Klucel (hydroxypropylcellulose) (HPC)) 74 % of control and 75 % of control; (endpoint: median tumor weight change, dose: 2000.0 mg/kg/injection, schedule: Q01DX001 (ip), vehicle: Klucel (hydroxypropylcellulose) (HPC)) 22 % of control and 38 % of control.

As for `c1cc[c]([Sn][c]2ccccc2)cc1`, the T/C by setting is: (endpoint: median tumor weight (est.), dose: 1.25 mg/kg/injection, schedule: Q07DX005 (ip), vehicle: saline) 101 % of control; (endpoint: median tumor weight (est.), dose: 2.5 mg/kg/injection, schedule: Q07DX005 (ip), vehicle: saline) 91 % of control; (endpoint: median tumor weight (est.), dose: 5.0 mg/kg/injection, schedule: Q07DX005 (ip), vehicle: saline) 86 % of control; (endpoint: median tumor weight (est.), dose: 10.0 mg/kg/injection, schedule: Q07DX005 (ip), vehicle: saline) 68 % of control; (endpoint: median tumor weight (est.), dose: 20.0 mg/kg/injection, schedule: Q07DX005 (ip), vehicle: saline) 50 % of control.

With `CC(Cc1ccc(O)c(O)c1)C(C)Cc1ccc(O)c(O)c1` (centres undefined), the T/C reads like this: (endpoint: median tumor weight change, dose: 500.0 mg/kg/injection, schedule: Q01DX001 (ip), vehicle: saline) 123 % of control; (endpoint: median tumor weight change, dose: 1000.0 mg/kg/injection, schedule: Q01DX001 (ip), vehicle: saline) 57 % of control.

Take `Nc1nc2c(C(=O)N3CCCC3)nnn2c2ccccc12`: the T/C under setting [1] was 77 % of control and the T/C under setting [2] is 87 % of control.
